From a melting point compilation (Tetko et al.; mined from patent text by program, amines drawn as free bases though some values may be those of a salt)

Row | SMILES | melting point [°C]
1 | OCC1OC(n2cnc3c(N4CCOCC4)ncnc32)CC1F (configuration not stated) | 175 to 178
2 | CN1CCN(CCCn2c(N)nc3ccccc32)CC1 | 195 to 197
3 | Cc1oc(C(C)C)cc1C(=O)O | 88.5
4 | COC(=O)c1ccc(/C=C/c2cc3c(cc2CCCO)C(C)(C)CCC3(C)C)cc1 | 109 to 116
5 | COc1cccc(OC/C=C(\C)C=O)c1 | 45 to 48
6 | N=C(c1ccccc1)c1ccccc1N | 48
7 | c1ccc(-c2nn3c(c2-c2nc4ccccc4[nH]2)CCC3)nc1 | 172 to 175
8 | CCCCCCCCCCCCS(=O)(=O)Nc1ccccc1C(=O)Nc1cc(Cl)c2c(c1O)CN(C)C(=O)N2 | 183 to 187
9 | COC(=O)Cn1c(=O)c2ccccc2n(CCCCl)c1=O | 144 to 146
10 | COC(=O)/C=C/Oc1ccc(Oc2ccc(F)cc2F)c(NS(C)(=O)=O)c1 | 98.5 to 98.9
11 | O=C(Nc1ccc(I)cc1)c1ccncc1 | 245 to 250
12 | O=C1NCCCCC1Cc1ccccc1 (configuration not stated) | 99 to 104
13 | COC(=O)[C@H]1C[C@H](C(=O)O)Nc2cccc(Cl)c21 (relative stereo) | 159 to 161
14 | O=C(c1ccc(F)cc1)c1cccnc1C(=O)O | 152 to 153
15 | CC(C)(C)OC(=O)N1C(=O)CCC1=O | 76 to 78
16 | O=C1COc2ccc(N3C(=O)C4=C(CCCC4)C3=O)cc2N1CC1CCOCC1 | 187 to 189
17 | COc1ccc(C(=O)c2cn3c4c(cccc24)OCC3CN2CCOCC2)cc1 (configuration not stated) | 209 to 214
18 | CCCN(CCC)C1Cc2cc3c(cc2C1)C(=O)NC3 (configuration not stated) | 206 to 208
19 | Cc1c(N2CC(O)C2)c(F)cc2c(=O)n(N)c(=O)n(C3CC3)c12 | 212 to 214
20 | COC(=O)[C@@H]1C[C@H](OS(=O)(=O)c2ccccc2Br)C(=O)[C@@H]2[C@@]3(C)C[C@@H](c4ccoc4)OC(=O)[C@H]3CC[C@]21C | 162 to 163
21 | Nc1ccc(Oc2ccc(C(c3ccc(Oc4ccc(N)c(O)c4)cc3)(C(F)(F)F)C(F)(F)F)cc2)cc1O | 178 to 181
22 | COC(=O)c1ccc(C(C(N)=O)C(C)c2cc(Cl)ccc2N2CCCC2)cc1 (configuration not stated) | 133 to 135
23 | CCOc1cc2nc(NC)nc(-c3cccc(-c4cnc5ccccc5c4)c3)c2cc1OCC | 157 to 159
24 | Fc1ccc(C(c2ccc(F)cc2)N2CCN(CC=C3CCc4ccccc43)CC2)cc1 | 138 to 142
25 | Brc1cn2ccccc2n1 | 83 to 85
26 | COc1ccc(Cl)cc1NC(=S)C1CCCCn2c1nc(-c1ccncn1)cc2=O (racemic) | 220 to 223

Row | SMILES | melting point [°C]
27 | Cc1c(C#N)c(SC(F)(F)F)cn1-c1c(Cl)cc(C(F)(F)F)cc1Cl | 98.5
28 | C/C(=N\OC(=O)c1ccccn1)[C@H]1CC[C@H]2[C@@H]3CCC4=CC(=O)CC[C@]4(C)[C@H]3CC[C@]12C | 172 to 174
29 | CCc1nc2cc(OC)c(OC)cc2c(-c2ccc(OC)c(OC)c2)c1CO | 192 to 193
30 | CCOCc1nc2c(N)nc3ccccc3c2n1CC1(NC(=O)NC(C)C)CCCCC1 | 135 to 160
31 | O=C1Nc2ccc(-c3cccc(Cl)c3)cc2C1=O | 159 to 161
32 | N#Cc1c(F)nn(-c2c(Cl)cc(C(F)(F)F)cc2Cl)c1N | 193 to 194
33 | CCc1c2c(nn1-c1ccccc1)c(Cl)nc1ccccc12 | 207 to 209
34 | Cc1c(NC(=O)c2ccc(-c3ccc(Cl)s3)cc2)ccc2cc(CN3CCCCCC3)cnc12 | 186 to 187
35 | CCc1cnc(C2=NC(C)(C(C)C)C(=O)N2)c(C(=O)OC(C)CC)c1 (configuration not stated) | 83 to 87
36 | COc1cc(Nc2c(C#N)cnc3sc(-c4ccc(C=O)cc4)cc23)c(Cl)cc1Cl | > 240
37 | CCCCc1cc(CCCC)n2ncc(Br)c2n1 | 47 to 48
38 | CC(C)(CCCCC(=O)CCCCC1(C(=O)O)CC1)C(=O)O | 49 to 52
39 | COC(=O)c1cc(C[C@@H]2COc3ccc(OCc4nc5cc(F)ccc5s4)cc3[C@@H]2O)ccc1OC (relative stereo) | 160 to 162
40 | O=c1cnc(C(F)(F)F)cn1-c1c(Cl)cc(C(F)(F)F)cc1[N+](=O)[O-] | 145 to 147
41 | CCOC(=O)c1cc(-c2nnnn2C)c(-c2ccc(F)cc2)s1 | 132 to 133
42 | O=S1(=O)c2ccccc2NC(=S)c2ccc(C(F)(F)F)cc21 | 275 to 278
43 | CC(C)CC(=O)C(=O)NCC(=O)c1ccccc1 | 193 to 195
44 | N#CC(C#N)=C1N(CCCN2CCOCC2)CCN1C1CCN(C2CC2)CC1 | 104 to 106
45 | Cc1cc(NCCO)c2[nH]nc(-c3ccccc3)c2n1 | 135
46 | COc1ccc(C2CCCC(=O)O2)cc1 (configuration not stated) | 57.5 to 59.5
47 | O=C(NCc1ccccc1)c1ccnc(NC(=O)c2ccccc2)c1 | 174 to 176
48 | CNCC[C@H]1CC[C@H](C(=O)O)CC1 | 212 to 214
49 | CCCc1c(OCC2COc3cc(CC(=O)O)ccc3O2)ccc(C(C)=O)c1O (configuration not stated) | 143 to 146
50 | CCOc1cc(OCC)c2c(C)c(CCCl)c(=O)oc2c1 | 123 to 126
51 | CCCCNC(=N)c1ccc2[nH]c(=O)[nH]c2c1 | 168
52 | CN(C)CCCNC1=C2N=c3cc(Cl)ccc3=C2Oc2ccccc2N1C | 156 to 157

Row | SMILES | melting point [°C]
53 | COC(=O)C(Cl)=Cc1cc(-n2ncc(C(F)(F)F)cc2=O)ccc1Cl | 140 to 141
54 | Cn1c(CC(=O)NO)ccc1C(=O)c1ccc(Cl)cc1 | 195
55 | CS(=O)(=O)Oc1ccc(Oc2ccccc2)cc1CC(=O)O | 121
56 | CCOC(=O)N1CCC(Cc2nc3ccccc3n2Cc2cccc(C)n2)CC1 | 160
57 | CCc1cccc(C)c1CNc1cc(C(=O)N(C)C)cc2[nH]c(C)nc12 | 228 to 230
58 | O=Cc1ccc2cc3c(cc2c1)sc1ccccc13 | 182 to 185
59 | CCn1cc(C(=O)O)c(=O)c2c(F)c(F)c(N3CCSCC3)c(F)c21 | 308 to 310
60 | CCCN(C(=O)COc1c(C)cccc1C)C1CCc2c(ccc(O)c2O)C1 (configuration not stated) | 153 to 155
61 | C(=C(c1ccccc1)c1ccccc1)C1CCN(CCCCCCc2cncnc2)CC1 | 88 to 90
62 | Cc1cc(=O)[nH]c2nc(OCCCCN3CCN(c4cccc(Cl)c4Cl)CC3)ccc12 | 181 to 182
63 | CN(C)CCCOc1ccc(-c2nnc(-c3ccc(Oc4ccccc4)cc3)o2)cc1 | 95
64 | O=c1cc(N2CCOCC2)oc2c(O)cccc12 | 240 to 247
65 | CCOC(=O)C1=NCC(C)(C)c2cc(OC)c3c(c21)CC(C)(C)O3 | 117 to 121
66 | CCOC(=O)c1ccsc1Nc1ccc(F)cc1[N+](=O)[O-] | 125
67 | CN(C)C(=N[N+](=O)[O-])N(Cc1cnc(Cl)s1)S(C)(=O)=O | 82 to 86
68 | NS(=O)(=O)c1cc2c(=O)[nH]ccc2s1 | 300 to 301
69 | CCc1nc2c(N)nc3ccccc3c2n1CCCCNC(=O)C1CCCC1 | 179 to 180
70 | O=C(O)Cc1c(C(=O)C2CCCCC2)[nH]c2cc(Cl)ccc12 | 206 to 209
71 | Cc1c(-c2ccc3cn[nH]c3c2)cc(Nc2ccc(N3CCOCC3)cn2)c2nccn12 | 160 to 164
72 | CSc1nccn1-c1cccc(C2=Nc3cc(O)c(-c4ccccc4F)cc3NC(=O)C2)c1 | > 250
73 | O=[N+]([O-])c1ccc(Cl)cc1-c1nc2ccccc2o1 | 130 to 132
74 | CC(=O)Nc1nc(O)c2cc(C=C(C)c3ccc(C(=O)O)cc3)cnc2n1 | > 250
75 | COc1ccc(C(=NOCc2ccc(OCc3nc(-c4ccccc4)oc3C)cc2)C(=O)O)cc1 | 183 to 184
76 | COc1ccc(C(=O)c2c[nH]c(=O)[nH]2)cc1OC | 257 to 259
77 | O=C(CCCCCBr)c1cc2c3c(c1)CC(=O)N3CCC2 | 86 to 87
78 | CCCN(CCC)S(=O)(=O)c1cc(C(=O)CCl)ccc1Cl | 76

Row | SMILES | melting point [°C]
79 | CC(C)c1cc(OCCO)cc2c1C(=O)N(COc1nc3ccccn3c(=O)c1Cl)S2(=O)=O | 214 to 216
80 | OC1CSC(Oc2ccc(-c3ccco3)nc2)C(O)C1O (configuration not stated) | 146
81 | C1=CN(Cc2ccccc2)CCC1c1cc2ccccc2o1 (configuration not stated) | 139 to 140
82 | CCn1c(=O)n(CC)c2cc3c(N4CCN(C(=O)Nc5ccc(Oc6ccccc6)cc5)CC4)nncc3cc21 | 125 to 128
83 | Cc1onc(C(=O)c2ccc(Cl)cc2)c1[N+](=O)[O-] | 173 to 175
84 | CCOC(=O)CCCCCCCn1cnc(-c2ccccc2)c1 | 56 to 57
85 | CCOC(=O)Cn1c(=O)c(=O)[nH]c2cc(C(F)(F)F)ccc21 | 250 to 251
86 | Oc1c(C(=S)NCc2ccc(Cl)cc2)cnc2ccc(I)cc12 | 275 to 276
87 | COCCOCCOc1ccc(C=O)cc1 | 44 to 47
88 | CCOC(=O)C(Cc1ccc(C(F)(F)F)cc1)C(=O)c1ccoc1 (configuration not stated) | 55 to 56
89 | C=CCOC(=O)c1cccc(NC(=O)NCNC(=O)c2ccccc2C(=O)c2ccccc2)c1 | 68 to 71
90 | COc1ccc2c(c1)N(c1ccc(F)cc1)C(=O)C2(C)NC(=O)OCc1ccccc1 (configuration not stated) | 167 to 169
91 | O=C1N(CCCl)c2ccc(F)cc2C12SCCCS2 | 122
92 | O=C(Cn1ccnc1)Nc1cccc2nc(N[C@@H]3CCc4ccccc43)ccc12 | 226
93 | O=[N+]([O-])c1ccc(C(O)c2ccccn2)cc1 (configuration not stated) | 114 to 115
94 | O=C(O)C(=O)c1ccc(OCCOC2CCCCCCC2)cc1 | 64 to 65
95 | COC(=O)c1ccc(I)cc1N | 63 to 67
96 | COc1cc(C)ccc1Oc1ccc(C=O)cc1C#N | 112 to 113
97 | O=C(CCNNC(=O)c1ccccc1)OCc1ccccc1 | 65
98 | O=c1occc2ccc(Oc3ccc(Cl)cc3)cc12 | 76.5 to 77
99 | Cc1noc(NS(=O)(=O)c2ccccc2C#N)c1Br | 152 to 155
100 | Cc1c(O)c(=O)ccn1CCCCO | 126 to 128
101 | CN(C)C(=O)N1CC(Oc2ccc(C(F)(F)F)cc2Cl)C1 | 106 to 108
102 | CC(C)(C)OC(=O)N[C@H](Cc1ccccc1)C(=O)OCCCNc1cccc2c1C(=O)c1ccccc1C2=O | 168
